Active and inactive are the calls of the source.
Assays:
Streptococcus = experiment: GAS UMAA2166 growth inhibition – luminescence, BacTiterGlo, counter-screen for streptokinase expression inhibitor project, dose response (AID 1915); assay type: functional, organism-based;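 also: potency for reduction of bacterial viability or growth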
Streptokinase A = molecular target: T1, Streptokinase A (Streptococcus pyogenes serotype M1, UniProt P10520); experiment: viability-normalized secreted streptokinase activity reduction – plasminogen activation absorbance, OD405, dose response (AID 1914); assay type: functional, Streptococcus pyogenes M1 GAS;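 also: secreted streptokinase activity via plasminogen activation per viability signal from cell pellet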
T1 sequence (P10520 whole entry): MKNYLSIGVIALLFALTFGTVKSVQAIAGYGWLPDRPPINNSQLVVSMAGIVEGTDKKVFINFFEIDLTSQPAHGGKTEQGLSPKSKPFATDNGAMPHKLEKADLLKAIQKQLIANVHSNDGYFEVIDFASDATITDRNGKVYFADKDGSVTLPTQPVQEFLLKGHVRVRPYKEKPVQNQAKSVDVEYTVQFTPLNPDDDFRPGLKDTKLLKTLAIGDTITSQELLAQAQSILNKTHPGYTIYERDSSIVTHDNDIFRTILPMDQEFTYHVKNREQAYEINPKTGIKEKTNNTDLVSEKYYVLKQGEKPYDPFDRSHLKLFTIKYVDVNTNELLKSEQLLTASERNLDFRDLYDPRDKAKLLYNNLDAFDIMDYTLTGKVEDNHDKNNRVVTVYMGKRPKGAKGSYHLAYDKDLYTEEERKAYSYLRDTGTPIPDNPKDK

[1] = tested on: Streptococcus sp. 'group A'; experiment: Streptococcus pyogenes SK(-)GAS viability under kanamycin – luminescence, BacTiterGlo, confirmation, counter-screen for streptokinase expression inhibitor project, dose response (AID 1900); assay type: functional, organism-based
[2] = molecular target: DNA (cytosine-5)-methyltransferase 1 (Homo sapiens, UniProt P26358); experiment: inhibition of DNA methylation by DNMT1 – biochemical, fluorescent molecular beacon, confirmation (AID 602386); assay type: functional
Chain of DNA (cytosine-5)-methyltransferase 1 (P26358 whole entry, the tested form may be a part): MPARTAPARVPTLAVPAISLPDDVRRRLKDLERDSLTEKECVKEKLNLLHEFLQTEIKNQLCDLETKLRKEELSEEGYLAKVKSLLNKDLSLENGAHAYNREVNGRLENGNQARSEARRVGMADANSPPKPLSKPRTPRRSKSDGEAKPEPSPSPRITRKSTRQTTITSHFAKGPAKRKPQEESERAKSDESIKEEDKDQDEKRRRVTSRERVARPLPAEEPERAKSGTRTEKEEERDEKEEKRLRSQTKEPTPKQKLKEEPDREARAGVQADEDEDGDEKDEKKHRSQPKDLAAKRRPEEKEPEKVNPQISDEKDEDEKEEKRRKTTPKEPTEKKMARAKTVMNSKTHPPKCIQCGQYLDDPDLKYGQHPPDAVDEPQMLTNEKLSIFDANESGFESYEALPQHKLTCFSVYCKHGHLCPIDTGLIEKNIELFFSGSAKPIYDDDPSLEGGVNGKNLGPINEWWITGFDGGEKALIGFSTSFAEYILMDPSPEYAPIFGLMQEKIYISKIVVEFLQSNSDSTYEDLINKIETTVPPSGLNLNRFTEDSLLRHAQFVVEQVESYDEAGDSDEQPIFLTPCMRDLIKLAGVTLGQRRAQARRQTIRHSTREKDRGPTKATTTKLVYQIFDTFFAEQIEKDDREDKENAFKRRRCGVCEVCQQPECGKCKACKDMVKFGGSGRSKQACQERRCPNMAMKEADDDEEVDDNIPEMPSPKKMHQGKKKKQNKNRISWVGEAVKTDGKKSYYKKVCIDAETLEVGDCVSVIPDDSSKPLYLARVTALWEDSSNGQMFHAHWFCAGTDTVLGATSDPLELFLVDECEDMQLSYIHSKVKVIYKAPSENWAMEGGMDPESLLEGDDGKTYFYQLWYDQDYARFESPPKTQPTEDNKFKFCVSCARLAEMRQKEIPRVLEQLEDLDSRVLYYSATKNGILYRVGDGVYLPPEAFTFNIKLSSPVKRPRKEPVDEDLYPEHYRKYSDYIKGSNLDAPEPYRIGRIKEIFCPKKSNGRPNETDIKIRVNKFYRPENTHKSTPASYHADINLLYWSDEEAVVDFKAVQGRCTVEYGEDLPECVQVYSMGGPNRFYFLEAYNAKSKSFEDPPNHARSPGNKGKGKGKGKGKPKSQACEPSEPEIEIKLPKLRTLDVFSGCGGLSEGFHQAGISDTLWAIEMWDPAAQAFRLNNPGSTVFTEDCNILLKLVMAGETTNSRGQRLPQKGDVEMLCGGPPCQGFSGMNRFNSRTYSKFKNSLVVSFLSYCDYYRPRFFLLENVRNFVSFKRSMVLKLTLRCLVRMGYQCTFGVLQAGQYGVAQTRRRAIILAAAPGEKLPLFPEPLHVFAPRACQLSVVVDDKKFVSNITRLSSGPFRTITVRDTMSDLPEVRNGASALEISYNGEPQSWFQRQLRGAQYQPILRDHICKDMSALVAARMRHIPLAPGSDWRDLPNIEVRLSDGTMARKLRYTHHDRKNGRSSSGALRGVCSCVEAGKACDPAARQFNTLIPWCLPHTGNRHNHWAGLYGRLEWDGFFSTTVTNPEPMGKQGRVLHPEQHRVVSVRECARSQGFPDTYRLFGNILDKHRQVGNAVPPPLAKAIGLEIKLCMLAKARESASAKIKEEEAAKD

[3] = molecular target: T2, Carboxy-terminal domain RNA polymerase II polypeptide A small phosphatase 1 (Homo sapiens, UniProt Q9GZU7); experiment: CTDSP1 inhibitors, concentration-response, biochemical, absorbance readout, ultra-high-throughput screen actives (AID 540297); assay type: functional
T2 sequence (Q9GZU7 whole entry): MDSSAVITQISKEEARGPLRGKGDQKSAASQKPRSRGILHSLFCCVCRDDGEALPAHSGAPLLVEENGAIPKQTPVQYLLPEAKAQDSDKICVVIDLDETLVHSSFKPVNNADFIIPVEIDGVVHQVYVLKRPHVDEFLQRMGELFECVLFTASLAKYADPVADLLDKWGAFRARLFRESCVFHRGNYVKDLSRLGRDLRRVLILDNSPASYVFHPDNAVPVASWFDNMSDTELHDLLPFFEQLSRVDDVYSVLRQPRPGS

Interleukin-8 [4] = molecular target: T3, Interleukin-8 (Homo sapiens, UniProt P10145); experiment: Dose Response confirmation of uHTS small molecule hits for cystic fibrosis induced NFkb Inhibitors in a PAF-induced IL8 counterscreen.; assay type: functional; conditions: read-out: IC50_Mean
T3 sequence (P10145 whole entry): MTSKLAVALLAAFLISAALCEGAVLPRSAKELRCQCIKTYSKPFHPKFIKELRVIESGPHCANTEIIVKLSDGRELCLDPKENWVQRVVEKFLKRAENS

HEK293 = experiment: EBV LMP1 TES2 canonical NF-kB signalling blockers – cell-based, HEK293, luciferase, cherry-pick, dose response (AID 588343); assay type: functional; conditions: Homo sapiens
Interleukin-8 [5] = molecular target: T3, Interleukin-8; experiment: Dose Response confirmation of uHTS small molecule hits for cystic fibrosis induced NFkb Inhibitors in a TNFa-induced IL8 counterscreen.; assay type: functional; conditions: read-out: IC50_Mean
[6] = Fluorescence-based cell-based high throughput dose response assay for inhibitors of the interaction of nucleotide-binding oligomerization domain containing 2 (NOD2) and the receptor-interacting serine-threonine kinase 2 (RIPK2).; assay type: functional; conditions: Homo sapiens
Vero [7] = experiment: viability of Vero cells under compound – cytotoxicity control for flavivirus capping enzyme inhibitors (AID 588742); assay type: functional; conditions: Chlorocebus sabaeus
Paired box protein Pax-8 = Paired box protein Pax-8 (Homo sapiens, UniProt Q06710); experiment: PAX8 transcriptional activity inhibition in RMG-I – RMG-I cells, luciferase, cherry-pick, dose response (AID 687027); assay type: functional, cell-based;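 also: luciferase reporter driven by Pax8 target thyroperoxidase promoter measured by SteadyGlo luminescence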
Chain of Paired box protein Pax-8 (Q06710 whole entry): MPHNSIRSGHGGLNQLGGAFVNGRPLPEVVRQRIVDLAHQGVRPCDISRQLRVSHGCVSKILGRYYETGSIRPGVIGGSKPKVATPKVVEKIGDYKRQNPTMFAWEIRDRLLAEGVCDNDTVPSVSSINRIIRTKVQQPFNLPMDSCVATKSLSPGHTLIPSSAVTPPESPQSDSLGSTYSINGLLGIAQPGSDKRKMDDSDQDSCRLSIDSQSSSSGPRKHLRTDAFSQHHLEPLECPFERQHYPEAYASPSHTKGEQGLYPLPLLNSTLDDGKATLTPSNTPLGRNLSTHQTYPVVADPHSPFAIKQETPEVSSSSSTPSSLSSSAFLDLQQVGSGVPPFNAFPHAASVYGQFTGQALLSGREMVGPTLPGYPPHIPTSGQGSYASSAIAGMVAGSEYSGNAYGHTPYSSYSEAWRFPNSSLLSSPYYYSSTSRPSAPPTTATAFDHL

[8] = molecular target: T4, Low molecular weight phosphotyrosine protein phosphatase (Homo sapiens, UniProt P24666); assay type: functional; conditions: read-out: IC50_Mean
T4 sequence (P24666 whole entry): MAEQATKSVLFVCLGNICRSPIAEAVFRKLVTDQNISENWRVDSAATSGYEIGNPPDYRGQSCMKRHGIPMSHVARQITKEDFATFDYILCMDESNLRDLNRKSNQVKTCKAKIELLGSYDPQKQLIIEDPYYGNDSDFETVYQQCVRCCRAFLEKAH

[9] = molecular target: T4, Low molecular weight phosphotyrosine protein phosphatase; assay type: functional; conditions: read-out: IC50_Mean; remark: listed apart in the source
[10] = molecular target: Protein disulfide-isomerase (Homo sapiens, UniProt P07237); experiment: inhibition of PDI-driven insulin aggregation – biochemical, turbidity, absorbance, cherry-picked samples, dose response (AID 602350); assay type: functional
Chain of Protein disulfide-isomerase (P07237 whole entry): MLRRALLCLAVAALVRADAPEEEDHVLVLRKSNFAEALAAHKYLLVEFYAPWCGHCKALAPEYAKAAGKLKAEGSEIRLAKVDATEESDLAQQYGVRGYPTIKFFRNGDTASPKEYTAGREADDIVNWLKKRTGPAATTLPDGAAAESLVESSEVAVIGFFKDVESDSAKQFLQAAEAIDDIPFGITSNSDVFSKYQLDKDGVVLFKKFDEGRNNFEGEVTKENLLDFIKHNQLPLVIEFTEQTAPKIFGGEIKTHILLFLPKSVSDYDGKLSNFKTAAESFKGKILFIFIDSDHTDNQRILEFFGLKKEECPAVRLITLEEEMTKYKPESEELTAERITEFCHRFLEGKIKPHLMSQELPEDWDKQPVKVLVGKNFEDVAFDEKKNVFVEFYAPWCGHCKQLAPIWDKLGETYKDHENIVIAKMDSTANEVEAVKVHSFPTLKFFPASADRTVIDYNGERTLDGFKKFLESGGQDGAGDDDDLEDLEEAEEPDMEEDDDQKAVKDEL

[11] = molecular target: T5, Heat shock factor protein 1 (Mus musculus, UniProt P38532); experiment: enhancement of HSF1-driven luciferase signal – cell-based, NIH3T3, luminescence, dose retest, confirmation (AID 435004); assay type: functional;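 also: stress induced by proteasome inhibitor MG132 added 30 min after compound; luciferase reporter driven by HSF1 response element in NIH3T3 cells; actives raise luminescence as potentiators of the MG132 stress response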
T5 sequence (P38532 whole entry): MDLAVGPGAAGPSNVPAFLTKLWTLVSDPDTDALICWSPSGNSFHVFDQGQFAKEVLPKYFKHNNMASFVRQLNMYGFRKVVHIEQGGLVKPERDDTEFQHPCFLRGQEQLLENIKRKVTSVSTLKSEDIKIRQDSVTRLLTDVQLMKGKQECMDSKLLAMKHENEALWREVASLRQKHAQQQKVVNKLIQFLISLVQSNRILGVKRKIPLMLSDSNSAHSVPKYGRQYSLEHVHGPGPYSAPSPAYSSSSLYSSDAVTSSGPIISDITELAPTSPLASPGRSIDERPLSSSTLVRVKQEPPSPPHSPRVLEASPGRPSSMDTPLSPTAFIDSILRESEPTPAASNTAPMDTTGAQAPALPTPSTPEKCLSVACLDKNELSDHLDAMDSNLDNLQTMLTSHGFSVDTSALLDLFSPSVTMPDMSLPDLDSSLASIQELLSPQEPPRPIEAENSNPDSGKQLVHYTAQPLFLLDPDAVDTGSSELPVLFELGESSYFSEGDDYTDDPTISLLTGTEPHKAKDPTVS

[12] = molecular target: T6, Corticotropin-releasing factor receptor 2/Corticotropin-releasing factor-binding protein (Homo sapiens, UniProt P24387+Q13324); experiment: activators of CRF receptor 2 with binding protein – uHTS hits, confirmation (AID 602473); assay type: functional; conditions: read-out: EC50_Mean
T6 sequence (Q13324 whole entry): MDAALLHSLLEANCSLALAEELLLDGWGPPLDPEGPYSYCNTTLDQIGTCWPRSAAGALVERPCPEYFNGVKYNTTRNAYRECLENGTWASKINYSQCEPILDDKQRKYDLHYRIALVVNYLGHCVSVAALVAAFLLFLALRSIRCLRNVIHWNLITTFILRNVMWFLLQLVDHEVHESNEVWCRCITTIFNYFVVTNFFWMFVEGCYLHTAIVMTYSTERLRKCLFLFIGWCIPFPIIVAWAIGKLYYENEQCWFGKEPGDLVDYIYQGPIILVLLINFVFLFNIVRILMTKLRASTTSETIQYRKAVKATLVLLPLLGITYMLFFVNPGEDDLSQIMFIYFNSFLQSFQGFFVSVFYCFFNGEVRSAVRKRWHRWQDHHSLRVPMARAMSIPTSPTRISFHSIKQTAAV
T6 sequence (P24387 whole entry): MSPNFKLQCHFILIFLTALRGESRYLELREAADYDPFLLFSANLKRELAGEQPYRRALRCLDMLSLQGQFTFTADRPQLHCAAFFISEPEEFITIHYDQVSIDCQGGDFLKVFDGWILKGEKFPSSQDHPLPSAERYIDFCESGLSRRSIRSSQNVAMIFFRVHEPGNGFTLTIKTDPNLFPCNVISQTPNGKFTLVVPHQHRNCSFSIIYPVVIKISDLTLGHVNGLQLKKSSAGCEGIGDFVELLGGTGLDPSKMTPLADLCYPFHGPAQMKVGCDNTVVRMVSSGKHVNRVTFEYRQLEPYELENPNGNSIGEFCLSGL

Vero [13] = experiment: viability loss in Vero cells – cell-based, plate reader, cherry-pick samples, cytotoxicity control, dose response (AID 687020); assay type: functional; conditions: Chlorocebus sabaeus
Cysteine protease ATG4B = molecular target: T7, Cysteine protease ATG4B (Homo sapiens, UniProt Q9Y4P1); assay type: functional;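 also: Fluorescence-based dose-response confirmation assay measuring inhibition of ATG4B activity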
T7 sequence (Q9Y4P1 whole entry): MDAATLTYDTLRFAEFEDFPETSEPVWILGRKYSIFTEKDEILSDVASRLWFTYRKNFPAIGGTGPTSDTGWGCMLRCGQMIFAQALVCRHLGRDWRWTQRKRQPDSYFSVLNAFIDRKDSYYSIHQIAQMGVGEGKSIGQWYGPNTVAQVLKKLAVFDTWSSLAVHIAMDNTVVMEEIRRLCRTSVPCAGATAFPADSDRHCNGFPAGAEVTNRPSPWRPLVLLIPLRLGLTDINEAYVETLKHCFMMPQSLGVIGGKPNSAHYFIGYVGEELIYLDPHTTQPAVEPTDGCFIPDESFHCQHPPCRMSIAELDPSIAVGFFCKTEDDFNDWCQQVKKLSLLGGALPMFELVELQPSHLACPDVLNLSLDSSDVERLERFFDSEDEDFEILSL

Phospholipase A2 = Phospholipase A2 (Homo sapiens, UniProt P04054); assay type: functional;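 also: confirmatory dose-response counterscreen on phospholipase A2, testing hits that came from an ultra-high-throughput screen for ATG4B inhibitors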
Chain of Phospholipase A2 (P04054 whole entry): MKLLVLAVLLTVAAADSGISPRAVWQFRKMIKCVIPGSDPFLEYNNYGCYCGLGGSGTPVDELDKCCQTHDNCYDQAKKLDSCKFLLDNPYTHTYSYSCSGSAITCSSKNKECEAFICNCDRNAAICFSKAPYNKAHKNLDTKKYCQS

Hexokinase HKDC1 = molecular target: T8, Hexokinase HKDC1 (Homo sapiens, UniProt Q2TB90); experiment: inhibition of HKDC1 glucose phosphorylation – biochemical, W721R variant, dose response (AID 504729); assay type: functional
T8 sequence (Q2TB90 whole entry): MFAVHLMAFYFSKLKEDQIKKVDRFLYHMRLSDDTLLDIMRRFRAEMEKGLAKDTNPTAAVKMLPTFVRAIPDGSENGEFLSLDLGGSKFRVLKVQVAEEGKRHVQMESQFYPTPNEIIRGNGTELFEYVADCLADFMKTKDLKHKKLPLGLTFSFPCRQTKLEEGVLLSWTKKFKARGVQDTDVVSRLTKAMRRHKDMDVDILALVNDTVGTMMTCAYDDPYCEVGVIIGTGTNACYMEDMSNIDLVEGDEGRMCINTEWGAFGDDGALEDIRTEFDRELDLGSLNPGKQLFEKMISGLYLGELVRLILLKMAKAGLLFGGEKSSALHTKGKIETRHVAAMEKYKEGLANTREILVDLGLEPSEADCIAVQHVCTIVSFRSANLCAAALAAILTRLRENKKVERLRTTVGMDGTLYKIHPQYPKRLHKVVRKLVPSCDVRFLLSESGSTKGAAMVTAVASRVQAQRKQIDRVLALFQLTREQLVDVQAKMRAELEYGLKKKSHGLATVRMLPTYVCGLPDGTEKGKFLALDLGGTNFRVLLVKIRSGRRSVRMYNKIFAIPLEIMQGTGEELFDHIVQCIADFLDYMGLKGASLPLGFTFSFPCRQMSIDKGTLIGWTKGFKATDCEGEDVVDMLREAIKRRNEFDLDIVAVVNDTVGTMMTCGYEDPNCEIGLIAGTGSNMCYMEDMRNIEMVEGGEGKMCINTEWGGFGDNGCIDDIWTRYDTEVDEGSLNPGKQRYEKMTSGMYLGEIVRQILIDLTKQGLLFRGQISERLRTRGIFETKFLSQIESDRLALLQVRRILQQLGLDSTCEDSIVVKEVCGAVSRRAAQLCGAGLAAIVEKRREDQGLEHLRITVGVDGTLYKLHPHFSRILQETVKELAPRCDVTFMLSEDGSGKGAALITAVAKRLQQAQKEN

Large T antigen = Large T antigen (Simian virus 40, UniProt P03070); assay type: functional, Betapolyomavirus macacae;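 also: Confirmatory-stage PubChem screen for compounds that inhibit SV40 T antigen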
Chain of Large T antigen (P03070 whole entry): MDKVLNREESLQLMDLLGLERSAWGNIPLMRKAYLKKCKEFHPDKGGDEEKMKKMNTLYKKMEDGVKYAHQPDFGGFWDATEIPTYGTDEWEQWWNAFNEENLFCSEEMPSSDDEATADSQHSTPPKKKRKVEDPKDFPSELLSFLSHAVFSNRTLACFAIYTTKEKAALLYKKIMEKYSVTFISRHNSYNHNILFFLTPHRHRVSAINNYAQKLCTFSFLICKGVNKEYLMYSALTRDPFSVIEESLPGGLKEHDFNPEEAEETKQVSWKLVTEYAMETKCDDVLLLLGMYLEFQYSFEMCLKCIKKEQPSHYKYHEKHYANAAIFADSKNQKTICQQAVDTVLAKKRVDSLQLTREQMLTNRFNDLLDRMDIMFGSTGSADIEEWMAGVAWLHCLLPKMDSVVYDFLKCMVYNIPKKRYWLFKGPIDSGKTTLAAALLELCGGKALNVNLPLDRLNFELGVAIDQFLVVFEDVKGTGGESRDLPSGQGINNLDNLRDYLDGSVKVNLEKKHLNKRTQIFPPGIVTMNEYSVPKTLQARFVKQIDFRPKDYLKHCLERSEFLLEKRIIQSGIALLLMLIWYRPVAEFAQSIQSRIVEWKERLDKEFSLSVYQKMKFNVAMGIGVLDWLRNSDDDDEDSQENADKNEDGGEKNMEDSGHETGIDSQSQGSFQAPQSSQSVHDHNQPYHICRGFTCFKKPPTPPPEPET

## CC(=O)OCC1=C(C(=O)O)N2C(=O)C(NC(=O)c3ccc(COc4cccc(Cl)c4Cl)o3)C2SC1 (stereo not given)
Streptococcus
  EC50: 8.94 µM (active)
Streptokinase A
  EC50: 12.6 µM (active)
[1]
  EC50: 5.04 µM (active)
[2]
  IC50: 8.67 µM (active)
[3]
  IC50: 5.07 µM (active)

## CC(=O)OC1CCC2(C)C(CCC3C4CC=C(C(C)=O)C4(C)OC(=O)CC32)C1 (stereo not given)
Interleukin-8 [4]
  IC50: 0.338 µM (active)
HEK293
  AC50: 1.65 µM (active)
Interleukin-8 [5]
  IC50: 1.12 µM (active)
[6]
  IC50: 5.12 µM (active)
Vero [7]
  CC50: 34.9 µM (active)
Paired box protein Pax-8
  AC50: 6.49 µM (active)

## O=C(/C=C\Nc1ccc2c(c1)OCO2)c1ccc(Cl)s1
[8]
  IC50: 19.9 µM (active)
[9]
  IC50: > 80 µM (inactive)

## Cc1c(-n2cc(C(=O)c3ccccc3O)cc(C#N)c2=O)c(=O)n(-c2ccccc2)n1C
[10]
  AC50: 5.89 µM (active)
[11]
  EC50: > 260 µM (inactive)
[12]
  EC50: 8.01 µM (active)

## O=C(c1ccccc1)C1OC1C(=O)c1ccccc1 (stereo not given)
Interleukin-8 [4]
  IC50: 2.84 µM (active)
Interleukin-8 [5]
  IC50: 6 µM (active)

## CCCCc1cc(=O)oc2cc(C)cc(OCC(=O)N3CCC(C(N)=O)CC3)c12
Vero [13]
  AC50: 37.5 µM (active)

## Cc1cc(/C=C2\C(=O)NC(=O)N(c3ccc(Cl)cc3)C2=O)c(C)n1-c1sc2c(c1C#N)CCCC2
Cysteine protease ATG4B
  IC50: 14.7 µM (active)
Phospholipase A2
  IC50: 14.1 µM (active)
[2]
  IC50: 9.52 µM (active)
Hexokinase HKDC1
  IC50: 10.8 µM (active)
Large T antigen
  IC50: 17.2 µM (active)

## CCCn1c(NCc2ccc(N(C)C)cc2)nc2ccccc21
Vero [13]
  AC50: 36.6 µM (active)

— ChEMBL document CHEMBL1201862, “PubChem BioAssay data set” (2004)
